Laboratory results as given in patent US4908351A, “Antibiotic a 42867 derivative” (Merrell Dow Pharmaceuticals Inc., priority 1988, dated 1990).

Legend:
Assay in all cases: MIC, broth dilution test
Format in all cases: cell-based
Staph. aureus L 165 = settings: Isosensitest broth, 24 h, 37° C.
Description: Culture media and growth conditions for MIC (minimal inhibitory concentration) determinations were as follows: Isosensitest broth (Oxoid), 24 h, for staphylococci, Strep. faecalis and Gram-negative bacteria (Escherichia coli); Todd-Hewitt broth (Difco), 24 h for other streptococcal species; GC base broth (Difco) +1% Isovitalex (BBL), 48 h, CO2 -enriched atmosphere for Neisseria gonorrhoeae; Brain Heart broth (Difco) +1% Supplement C (Difco), 48 h for Haemophilus influenzae. PPLO broth with supplements as in R. T. Evans and D. Taylor-Robinson (J. Antimicrob. Chemother. 4, 57), 24 h for U. urealyticum. Incubation was at 37° C. […] The minimal inhibitory concentrations (MIC, microgram/ml) for some microorganisms are reported below in Table I.

[1] = tested on: Strep. pyogenes L 49 C 203; settings: Todd-Hewitt broth, 24 h, 37° C.
Description: (§1) Culture media and growth conditions for MIC (minimal inhibitory concentration) determinations were as follows: Isosensitest broth (Oxoid), 24 h, for staphylococci, Strep. faecalis and Gram-negative bacteria (Escherichia coli); Todd-Hewitt broth (Difco), 24 h for other streptococcal species; GC base broth (Difco) +1% Isovitalex (BBL), 48 h, CO2 -enriched atmosphere for Neisseria gonorrhoeae; Brain Heart broth (Difco) +1% Supplement C (Difco), 48 h for Haemophilus influenzae. PPLO broth with supplements as in R. T. Evans and D. Taylor-Robinson (J. Antimicrob. Chemother. 4, 57), 24 h for U. urealyticum. Incubation was at 37° C. Inocula were as follows: about 10^4 color-changing units/ml for U. urealyticum; about 10^4 -10^5 colony-forming units/ml for other broth dilution MICs. The minimal inhibitory concentrations (MIC, microgram/ml) for some microorganisms are reported below in Table I.

[2] = tested on: Strep. pneumoniae L 44 UC 41; settings: Todd-Hewitt broth, 24 h, 37° C.
Description: as §1

[3] = tested on: Haemophilus influenzae type b L 970 ATCC 19418; settings: Brain Heart broth +1% Supplement C, 48 h, 37° C.
Description: as §1

[4] = tested on: Strep. faecalis L 149 ATCC 7080; settings: Isosensitest broth, 24 h, 37° C.
Description: as §1

[5] = tested on: Ureaplasma urealyticum 1479 clin. isolate; settings: PPLO broth with supplements, 24 h, about 10^4 color-changing units/ml, 37° C.
Description: as §1

[6] = tested on: Escherichia coli L 47 SKF 12140; settings: Isosensitest broth, 24 h, 37° C.
Description: as §1

[7] = tested on: Staph. epidermidis L 147 ATCC 12228 (coagulase negative); settings: Isosensitest broth, 24 h, 37° C.
Description: as §1

[8] = tested on: Staph. haemolyticus clin isolate; settings: Isosensitest broth, 24 h, 37° C.
Description: as §1

[9] = tested on: Neisseria gonorrhoeae L 997 ISM 68/126; settings: GC base broth +1% Isovitalex, 48 h, CO2-enriched atmosphere, 37° C.
Description: as §1

[10] = tested on: Strep. mitis L 796 (clinical isolate); settings: Todd-Hewitt broth, 24 h, 37° C.
Description: as §1

antibiotic A 42867 pseudoaglycon
M.I.C. (Staph. aureus L 165; Staph. aureus 10^6 cfu/ml): 1 microgram/ml | M.I.C. (Staph. aureus L 165; Staph. aureus 30% bovine serum): 2 microgram/ml | M.I.C. (Staph. aureus L 165; Staph. aureus L 165, 10^4 cfu/ml): 1 microgram/ml | M.I.C. [1]: 0.5 microgram/ml | M.I.C. [2]: 1 microgram/ml | M.I.C. [3]: > 128 microgram/ml | M.I.C. [4]: 2 microgram/ml | M.I.C. [5]: > 128 microgram/ml | M.I.C. [6]: > 128 microgram/ml | M.I.C. [7]: 2 microgram/ml | M.I.C. [8]: 2 microgram/ml | M.I.C. [9]: 64 microgram/ml | M.I.C. [10]: 0.5 microgram/ml
